From the NIST ThermoML archive (doi:10.1016/j.jct.2009.05.006)

Key:
[1] = xn = mol fraction of the nth substance listed; conditions: 298.15 K, 101 kPa, Liquid, Vibrating tube method
[2] = excess molar enthalpy (molar enthalpy of mixing); xn = mol fraction of the nth substance listed; conditions: 298.15 K, 101 kPa, Liquid, Calvet calorimetry

CCCCOC(=O)CCC [butyl butanoate] + BrCCCCBr
Conditions | excess molar enthalpy [kcal/mol] | mass density [kg/m3]
[1], x1 = 0.0459 | – | 1757.74
[1], x1 = 0.1377 | – | 1643.47
[1], x1 = 0.1788 | – | 1594.83
[1], x1 = 0.2814 | – | 1479.86
[1], x1 = 0.3346 | – | 1423.4
[1], x1 = 0.3891 | – | 1367.86
[1], x1 = 0.5003 | – | 1260.78
[1], x1 = 0.5704 | – | 1197.33
[1], x1 = 0.6285 | – | 1146.9
[1], x1 = 0.7046 | – | 1083.68
[1], x1 = 0.7684 | – | 1032.96
[1], x1 = 0.8513 | – | 970.06
[1], x1 = 0.9156 | – | 923.4
[2], x1 = 0.0526 | 0.00645 | –
[2], x1 = 0.1195 | 0.0117 | –
[2], x1 = 0.1947 | 0.0139 | –
[2], x1 = 0.2716 | 0.0117 | –
[2], x1 = 0.3471 | 0.0055 | –
[2], x1 = 0.4134 | -0.00263 | –
[2], x1 = 0.471 | -0.0117 | –
[2], x1 = 0.5005 | -0.0155 | –
[2], x1 = 0.579 | -0.0206 | –
[2], x1 = 0.6761 | -0.0222 | –
[2], x1 = 0.7901 | -0.0196 | –
[2], x1 = 0.9017 | -0.0122 | –

BrCCCCCBr [1,5-dibromopentane] + CCCCOC=O
Conditions | excess molar enthalpy [kcal/mol] | mass density [kg/m3]
[1], x2 = 0.0756 | – | 1642.01
[1], x2 = 0.1366 | – | 1599.08
[1], x2 = 0.2027 | – | 1551.59
[1], x2 = 0.2682 | – | 1503.58
[1], x2 = 0.3259 | – | 1460.47
[1], x2 = 0.3871 | – | 1413.8
[1], x2 = 0.4492 | – | 1365.54
[1], x2 = 0.5143 | – | 1313.85
[1], x2 = 0.5679 | – | 1270.35
[1], x2 = 0.6274 | – | 1221.19
[1], x2 = 0.687 | – | 1170.94
[1], x2 = 0.7958 | – | 1076.48
[1], x2 = 0.8434 | – | 1033.97
[1], x2 = 0.9499 | – | 936.18
[2], x2 = 0.0868 | 0.0232 | –
[2], x2 = 0.1853 | 0.0394 | –
[2], x2 = 0.2872 | 0.0531 | –
[2], x2 = 0.3842 | 0.0598 | –
[2], x2 = 0.4656 | 0.0605 | –
[2], x2 = 0.5328 | 0.0578 | –
[2], x2 = 0.5803 | 0.0557 | –
[2], x2 = 0.6291 | 0.0521 | –
[2], x2 = 0.7084 | 0.0447 | –
[2], x2 = 0.7902 | 0.0332 | –
[2], x2 = 0.8713 | 0.0215 | –
[2], x2 = 0.9437 | 0.0112 | –

BrCCBr [1,2-dibromoethane] + CCCCOC=O
Conditions | excess molar enthalpy, [2] [kcal/mol] | mass density, [1] [kg/m3]
x2 = 0.0489 | – | 2085.1
x2 = 0.0509 | 0.0098 | –
x2 = 0.0955 | – | 2008.94
x2 = 0.1197 | 0.0186 | –
x2 = 0.1401 | – | 1938.46
x2 = 0.1884 | – | 1864.18
x2 = 0.1992 | 0.027 | –
x2 = 0.2379 | – | 1790.7
x2 = 0.28 | 0.032 | –
x2 = 0.3095 | – | 1688.13
x2 = 0.3398 | – | 1646.07
x2 = 0.3511 | 0.0332 | –
x2 = 0.3993 | 0.0327 | 1565.68
x2 = 0.449 | 0.0315 | –
x2 = 0.4831 | 0.0299 | –
x2 = 0.5112 | – | 1422.24
x2 = 0.5504 | 0.027 | –
x2 = 0.5786 | – | 1340.18
x2 = 0.6334 | 0.022 | –
x2 = 0.641 | – | 1266.85
x2 = 0.7029 | – | 1196.55
x2 = 0.7275 | 0.016 | –
x2 = 0.7738 | – | 1118.89
x2 = 0.8087 | 0.0105 | –
x2 = 0.8358 | – | 1053.24
x2 = 0.9111 | 0.00406 | –
x2 = 0.9138 | – | 973.46
